Experimental findings from US10975068B2, “6-aminopyridin-3-yl thiazoles as modulators of RORγT” (Janssen Pharmaceutica NV, priority 2016, dated 2021) are described below.

Where two headings read alike, the source gives them in different places. Marks after values point to notes of the source that are not given here.

The target in test [1] is human RORγt ligand binding domain (RORγt LBD) (Homo sapiens (Human), UniProt P51449). The test is described as follows: RORγt ThermoFluor® assay (thermal shift binding). As to conditions: for Kd: read-out: ThermoFluor® Assay, Kd. In short, it runs like this: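 His-tagged human RORγt LBD (0.065 mg/mL) with 60 μM 1,8-ANS in 100 mM Hepes pH 7.0, 10 mM NaCl, 2.5 mM GSH, 0.002% Tween-20 was heated at 1 °C/min.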
human RORγt ligand binding domain (RORγt LBD), sequence (P51449 other isoform, or with tags, fused parts or gaps): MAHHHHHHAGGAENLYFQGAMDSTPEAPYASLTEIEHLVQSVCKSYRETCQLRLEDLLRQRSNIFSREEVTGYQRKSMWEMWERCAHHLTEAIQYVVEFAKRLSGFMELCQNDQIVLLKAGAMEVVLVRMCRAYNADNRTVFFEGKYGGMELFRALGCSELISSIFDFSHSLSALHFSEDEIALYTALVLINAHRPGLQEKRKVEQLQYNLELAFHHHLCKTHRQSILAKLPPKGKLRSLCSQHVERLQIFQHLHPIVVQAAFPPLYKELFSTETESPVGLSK
In general terms: DSF heats the sample and reads unfolding from a dye or from intrinsic fluorescence.

Test [2] has as its target full-length human RORγt (Homo sapiens (Human), UniProt P51449). The experiment in a line: RORγt (full-length human) reporter assay, Conditions B or C. It counts as cell-based. As to conditions: for IC50: read-out: RORγt (FL) Reporter Assay B or C, IC50; for RORγt (FL) Reporter Assay B or C, % inhibition (value marked *): marked *: footnote not given. In short, it runs like this: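 HEK293T cells transiently co-transfected with GAL4-DBD–full-length human RORγt (nt 142-1635, NM_001001523.1) plus GAL4-firefly and CMV-Renilla luciferase reporters; compounds added 4-6 h post-transfection for 16-20 h in 1.3% FBS, 0.1% DMSO. Firefly signal normalized to DMSO and saturating reference compound, then to Renilla; IC50 from concentration plots.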
On the technique in general: Reporter assays use an easily measured gene product as a stand-in for the process of interest.

The mark [3] stands for this setting: at 3 μM compound concentration, read-out: RORγt (FL) Reporter Assay B or C, % inhibition.
The mark [4] stands for this setting: compared to Comparator Example 1.
[5] abbreviates: compared to Comparator Example 2.

full-length human RORγt, sequence (P51449 other isoform, or with tags, fused parts or gaps): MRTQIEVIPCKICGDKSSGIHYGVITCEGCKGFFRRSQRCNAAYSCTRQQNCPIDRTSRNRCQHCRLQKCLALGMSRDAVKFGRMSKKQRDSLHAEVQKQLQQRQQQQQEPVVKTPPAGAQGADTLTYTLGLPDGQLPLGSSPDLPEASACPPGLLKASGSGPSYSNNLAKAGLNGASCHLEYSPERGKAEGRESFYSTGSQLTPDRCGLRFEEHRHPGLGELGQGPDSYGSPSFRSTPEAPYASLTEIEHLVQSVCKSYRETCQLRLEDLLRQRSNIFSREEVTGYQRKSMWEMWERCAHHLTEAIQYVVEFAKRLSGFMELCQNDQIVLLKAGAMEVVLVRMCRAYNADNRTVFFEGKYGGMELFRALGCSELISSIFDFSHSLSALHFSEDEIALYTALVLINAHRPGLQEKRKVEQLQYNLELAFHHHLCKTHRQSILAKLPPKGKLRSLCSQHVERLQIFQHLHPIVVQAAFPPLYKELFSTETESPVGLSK

A word on the Kd: it is the constant that tells how readily two partners part at equilibrium. Broadly, the inhibition is the drop in the measured response relative to a control, in per cent. For orientation: IC50 means the concentration at which inhibition is half-maximal. As for `C[C@H](CO)NC(=O)c1nc(C(=O)N2CC(F)(F)C[C@@H]2C)c(-c2cnc(NC(C)(C)C)cc2C(F)F)s1` [Example 428, 5-[6-(tert-Butylamino)-4-(difluoromethyl)-3-pyridyl]-4-[(2S)-4,4-difluoro-2-methyl-pyrrolidine-1-carbonyl]-N-[(1R)-2-hydroxy-1-methyl-ethyl]thiazole-2-carboxamide], in test [1], the Kd is 1 nM. Moreover, the inhibition at 3 µM in test [2] (setting [3]) stood at 113%. Moreover, the IC50 in test [2] stood at 17 nM.
With `C[C@H]1CCCN1C(=O)c1nc(C(=O)NCC(C)(C)O)sc1-c1cnc(NCC2(C(F)(F)F)CCC2)cc1C(F)F` [Example 274, 5-[4-(Difluoromethyl)-6-[[1-(trifluoromethyl)cyclobutyl]methylamino]-3-pyridyl]-N-(2-hydroxy-2-methyl-propyl)-4-[(2S)-2-methylpyrrolidine-1-carbonyl]thiazole-2-carboxamide], the Kd in test [1] came out at 0.97 nM. Besides, in test [2] (setting [3]), the inhibition at 3 µM stood at 96%. Further, the IC50 in test [2] is 36 nM.
The matching figures for `C[C@H]1CCCN1C(=O)c1nc(C(=O)NCC(C)(O)C(F)(F)F)sc1-c1cnc(NC(C)(C)C)cc1C(F)(F)F` (single isomer, unassigned) [Example 358, 5-(6-(tert-Butylamino)-4-(trifluoromethyl)pyridin-3-yl)-4-((S)-2-methylpyrrolidine-1-carbonyl)-N—((S*)-3,3,3-trifluoro-2-hydroxy-2-methylpropyl)thiazole-2-carboxamide]: 2.5 nM, 119% and 15 nM.
On the same counts, the results for `CC[C@H](Nc1cc(C(F)F)c(-c2sc(C(=O)N3CC(S(C)(=O)=O)C3)nc2C(=O)N2CCC[C@@H]2C)cn1)C(F)(F)F` [Example 393, [5-[4-(Difluoromethyl)-6-[[(1S)-1-(trifluoromethyl)propyl]amino]-3-pyridyl]-2-(3-methylsulfonylazetidine-1-carbonyl)thiazol-4-yl]-[(28)-2-methylpyrrolidin-1-yl]methanone] are 29 nM, 118% and 27 nM.
As to `C[C@H](Nc1cc(C(F)F)c(-c2sc(C(=O)N3CC(S(C)(=O)=O)C3)nc2C(=O)N2CCC[C@@H]2C)cn1)C(F)(F)F` [Example 450], in test [1], the Kd was 50 nM. For the same compound, the inhibition at 3 µM in test [2] (setting [3]) was 106%. In addition, the IC50 in test [2] was determined as 230 nM.
Take `CC[C@H](Nc1cc(C(F)F)c(-c2sc(C(=O)NC3CCC3O)nc2C(=O)N2CCC[C@@H]2C)cn1)C(F)(F)F` (stereo partly drawn) [Example 379, 5-(4-(Difluoromethyl)-6-(((S)-1,1,1-trifluorobutan-2-yl)amino)pyridin-3-yl)-N-(cis-2-hydroxycyclobutyl)-4-((S)-2-methylpyrrolidine-1-carbonyl)thiazole-2-carboxamide]: the Kd in test [1] is 2.4 nM. Also, the “RORγt (FL) Reporter Assay B or C, % inhibition” value in test [2] (at 3 μM compound concentration) is reported as 101* %. For the same compound, in test [2], the IC50 is 55 nM.
For `C[C@H]1CCCN1C(=O)c1nc(C(=O)NC2CCS(=O)(=O)CC2)sc1-c1cnc(NC(C)(C)C)cc1C(F)F` [Example 435, 5-[6-(tert-Butylamino)-4-(difluoromethyl)-3-pyridyl]-N-(1,1-dioxothian-4-yl)-4-[(2S)-2-methylpyrrolidine-1-carbonyl]thiazole-2-carboxamide], the Kd in test [1] is 2.3 nM. Further, the inhibition at 3 µM in test [2] (setting [3]) stood at 105%. In addition, the concentration for half-maximal inhibition (IC50) in test [2] is 21 nM.
On the same counts, the results for `C[C@H]1CCCN1C(=O)c1nc(C(=O)NCC(O)(C(F)(F)F)C(F)(F)F)sc1-c1cnc(NC(C)(C)C)cc1C(F)(F)F` [Example 271, 5-[6-(tert-Butylamino)-4-(trifluoromethyl)-3-pyridyl]-4-[(2S)-2-methylpyrrolidine-1-carbonyl]-N-[3,3,3-trifluoro-2-hydroxy-2-(trifluoromethyl)propyl]thiazole-2-carboxamide] are 4 nM, 106% and 5.7 nM.
For the compound `C[C@H]1CCCCN1C(=O)c1nc(C(=O)NCC(C)(C)O)sc1-c1cnc(NC2CCCCC2)cc1C(F)F` [Example 34, (S)-5-(6-(Cyclohexylamino)-4-(difluoromethyl)pyridin-3-yl)-N-(2-hydroxy-2-methylpropyl)-4-(2-methylpiperidine-1-carbonyl)thiazole-2-carboxamide], the Kd in test [1] came to 0.29 nM. In addition, the IC50 in test [2] (Conditions B or C) came out at 6.9 nM. For the same compound, the inhibition at 6 µM in test [2] (read-out: RORγt (FL) Reporter Assay B or C, % inhibition @ 6 μM, Conditions B or C, @ 6 μM) was 105%.
Take `C[C@H]1CCCN1C(=O)c1nc(C(=O)NCC(C)(C)O)sc1-c1cnc(NCC2(C(F)(F)F)CC2)cc1C(F)(F)F` [Example 125]: the Kd in test [1] turned out to be 2.4 nM. In test [2] (Conditions B or C), the “RORγt (FL) Reporter Assay B or C, % inhibition (value marked *)” value was 100* % and the IC50 was 59 nM.
As for `C[C@@H](NC(=O)c1nc(C(=O)N2C3CCC2CC3)c(-c2cnc(NC3(C)CCC3)cc2C(F)F)s1)C(C)(C)O` [Example 329, 4-((1s,4s)-7-Azabicyclo[2.2.1]heptane-7-carbonyl)-5-(4-(difluoromethyl)-6-((1-methylcyclobutyl)amino)pyridin-3-yl)-N—((R)-3-hydroxy-3-methylbutan-2-yl)thiazole-2-carboxamide], the Kd in test [1] amounted to 1.7 nM. Moreover, in test [2] (setting [3]), the inhibition at 3 µM worked out at 89%. In test [2], the IC50 stood at 38 nM.
For the compound `CC[C@H](Nc1cc(C(F)F)c(-c2sc(C(=O)N[C@H]3CC[C@H]3O)nc2C(=O)N2CCC[C@@H]2C)cn1)C(F)(F)F` (relative stereo) [Example 380, 5-(4-(Difluoromethyl)-6-(((S)-1,1,1-trifluorobutan-2-yl)amino)pyridin-3-yl)-N-((1S*,2R*)-2-hydroxycyclobutyl)-4-((S)-2-methylpyrrolidine-1-carbonyl)thiazole-2-carboxamide], the Kd in test [1] turned out to be 1.6 nM. In addition, the inhibition at 3 µM in test [2] (setting [3]) was found to be 108%. In addition, the half-maximal inhibitory concentration (IC50) in test [2] came to 18 nM.
With `C[C@H](NC(=O)c1nc(C(=O)N2CCC[C@@H]2C)c(-c2cnc(NCC(C)(C)C)cc2C(F)F)s1)C(C)(C)O` [Example 344, 5-[4-(Difluoromethyl)-6-(2,2-dimethylpropylamino)-3-pyridyl]-N-[(1S)-2-hydroxy-1,2-dimethyl-propyl]-4-[(2S)-2-methylpyrrolidine-1-carbonyl]thiazole-2-carboxamide], the Kd in test [1] came out at 3.2 nM. Moreover, the inhibition at 0.33 µM in test [2] (at 0.33 μM compound concentration, read-out: RORγt (FL) Reporter Assay B or C, % inhibition) was 53%. The IC50 in test [2] was 5.3 nM.
For `C[C@H]1CCCN1C(=O)c1nc(C(=O)N2CC(O)C2)sc1-c1cnc(NC(C)(C)C)cc1C(F)(F)F` [Example 250, [5-[6-(tert-Butylamino)-4-(trifluoromethyl)-3-pyridyl]-2-(3-hydroxyazetidine-1-carbonyl)thiazol-4-yl]-[(2S)-2-methylpyrrolidin-1-yl]methanone], in test [1], the Kd worked out at 8.1 nM. Further, in test [2] (setting [3]), the inhibition at 3 µM stood at 106%. Moreover, the IC50 in test [2] was 28 nM.
On to `C[C@H](Nc1cc(C(F)(F)F)c(-c2sc(C(=O)NCC(C)(C)O)nc2C(=O)N2CCC[C@@H]2C)cn1)C1CCC1` (relative stereo) [Example 175, 5-(6-(((S*)-1-Cyclobutylethyl)amino)-4-(trifluoromethyl)pyridine-3-yl)-N-(2-hydroxy-2-methylpropyl)-4-(((S)-2-methylpyrrolidine-1-carbonyl)thiazole-2-carboxamide], for which, in test [1], the Kd is 5.8 nM. Further, the “RORγt (FL) Reporter Assay B or C, % inhibition (value marked ***)” value in test [2] (Conditions B or C, marked ***: footnote not given) is on record as 119*** %. Besides, the IC50 in test [2] (Conditions B or C) is 44 nM.
In the case of `C[C@H]1CCCN1C(=O)c1nc(C(=O)NCC(C)(C)O)sc1-c1cnc(NC2CCCCC2)c(C#N)c1` [Example 146, (S)-5-(5-Cyano-6-(cyclohexylamino)pyridin-3-yl)-N-(2-hydroxy-2-methylpropyl)-4-(2-methylpyrrolidine-1-carbonyl)thiazole-2-carboxamide], the figures for the “fold improvement in RORγt Thermofluor® binding assay activity” value in test [1] (setting [4]) and in test [1] (setting [5]) were 14 fold and 27 fold, respectively. Further, the Kd in test [1] came out at 210 nM. In addition, the “RORγt (FL) Reporter Assay B or C, % inhibition (value marked *)” value in test [2] (Conditions B or C) is 98* %. Further, the IC50 in test [2] (Conditions B or C) and in test [2] (HEK293T cells) was 830 nM in each case. Moreover, the “fold improvement in RORγt reporter assay activity” value in test [2] (setting [4]) is reported as 7.2 fold; in test [2] (setting [5]) it was 3.6 fold.
Regarding `C[C@H]1CCCN1C(=O)c1nc(C(=O)NC2CCS(=O)(=O)CC2)sc1-c1cnc(NC(C)(C)C)cc1C(F)(F)F` [Example 254, 5-[6-(tert-Butylamino)-4-(trifluoromethyl)-3-pyridyl]-N-(1,1-dioxothian-4-yl)-4-[(2S)-2-methylpyrrolidine-1-carbonyl]thiazole-2-carboxamide], the Kd in test [1] was 0.25 nM. Besides, the inhibition at 3 µM in test [2] (setting [3]) was found to be 107%. Also, in test [2], the IC50 was found to be 16 nM.
On to `CC[C@H](Nc1cc(C(F)F)c(-c2sc(C(=O)N3CC4(CCO4)C3)nc2C(=O)N2CCC[C@@H]2C)cn1)C(F)(F)F` [Example 385, [5-[4-(Difluoromethyl)-6-[[(1S)-1-(trifluoromethyl)propyl]amino]-3-pyridyl]-2-(3-oxa-6-azaspiro[3.3]heptane-6-carbonyl)thiazol-4-yl]-[(2S)-2-methylpyrrolidin-1-yl]methanone], for which the Kd in test [1] amounted to 100 nM. Also, in test [2] (setting [3]), the inhibition at 3 µM was 95%. Also, in test [2], the IC50 was 350 nM.
